Measurements from patent publication US20100063041A1, “NOVEL PHENYLPROPIONIC ACID DERIVATIVES AS PEROXISOME PROLIFERATOR-ACTIVATED GAMMA RECEPTOR MODULATORS, METHOD OF THE SAME, AND PHARMACEUTICAL COMPOSITION COMPRISING THE SAME” (priority 2007, published 2010).
Numbering of substitutions follows the chain as printed.

Key:
Human PPAR-α = target: T1, Human PPAR-α (Homo sapiens, UniProt Q07869); experiment: transactivation assay (GAL4 chimeric receptor, luciferase) in CV-1 cells; type: cell-based; details: for Emax: CV-1, Relative Response % to maximum effects of the positive control drug, read-out: Max % Human PPAR-α; for EC50: CV-1 cells, GAL4 chimeric receptor, 24 hours
T1 construct: expressed in transfected cells; host or cells: CV-1 (CCL-70, ATCC)
T1 sequence (Q07869 239-466 limits assumed): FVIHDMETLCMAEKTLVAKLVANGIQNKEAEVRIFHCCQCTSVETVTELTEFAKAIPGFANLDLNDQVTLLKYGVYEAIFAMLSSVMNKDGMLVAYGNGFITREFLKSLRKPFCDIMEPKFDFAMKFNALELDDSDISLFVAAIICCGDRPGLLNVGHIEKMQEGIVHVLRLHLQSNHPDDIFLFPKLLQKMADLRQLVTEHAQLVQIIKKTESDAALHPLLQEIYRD
Procedure: (§1) Following induction of transient intracellular expression of PPAR-α and -γ, an ability of the inventive compounds to induce transactivation of PPARs via activation of each PPAR was evaluated as an efficacy of the compound (transactivation assay).
(§2) For this assay, the African green monkey kidney cell line CV-1 (CCL-70, ATCC) was used as a test cell line, and PPAR-α and -γ were murine- and human-derived PPARs. Samples used were compounds prepared in Examples 19, 21, 23, 25, 26, 27, 31, 33, 34, 36, 38, 40, 42, 43 and 50. As a positive control drug, 3-4-[2-(2-phenyl-4-methyl-1,3-oxazole)ethyloxy]phenyl-(2S)-[(1-methyl-3-oxo-3-phenyl)propenyl]aminopropionic acid was used that is a PPAR-α or -γ agonist which was once under development and whose clinical trials and studies were suspended at phase III. A chimeric receptor was adopted to circumvent the probable interference due to endogenous receptor activation (Jian-Shen Q. et al., Mol Cell Biol (1995) 15(3):1817-1825). The chimeric receptor was constructed as a fusion of a PPAR-α or -γ ligand-binding domain with a DNA-binding domain of GAL4 which is a yeast transactivator.
(§3) The CV-1 cells were transiently transfected with each of chimeric receptor-expressing DNA constructs and each of DNA constructs comprising 5 copies of the GAL4 DNA-binding domain and capable of inducing expression of firefly luciferase or Renilla luciferase using a Lipofectamine Plus reagent (Invitrogen, USA). After transfection for 3 hours, the culture media were replaced with DMEM containing the above samples and 10% fetal bovine serum. 24 hours later, the firefly luciferase activity and Renilla luciferase activity were continuously assayed while adding an equal amount of a dual luciferase assay reagent (Promega, USA) to the cell-containing media. The transfection efficiency was normalized against Renilla luciferase activity (Motomura W. et al., Int J Cancer (2004) 108(1):41-6). The PPAR-α and -γ activity was determined by calculating Relative Response % to maximum effects of the positive control drug, and conducting multiple dose evaluation of the inventive compounds to calculate EC50, which is the concentration of a drug which produces 50% activation relative to maximum effects of the inventive compounds, by nonlinear regression analysis.

Human PPAR-γ = target: T2, Human PPAR-γ (Homo sapiens, UniProt P37231); experiment: as above; type: cell-based; details: for Emax: CV-1, Relative Response % to maximum effects of the positive control drug, read-out: Max % Human PPAR-γ; for EC50: CV-1 cells, GAL4 chimeric receptor, 24 hours
T2 construct: expressed in transfected cells; host or cells: CV-1 (CCL-70, ATCC)
T2 sequence (P37231 238-503 limits assumed): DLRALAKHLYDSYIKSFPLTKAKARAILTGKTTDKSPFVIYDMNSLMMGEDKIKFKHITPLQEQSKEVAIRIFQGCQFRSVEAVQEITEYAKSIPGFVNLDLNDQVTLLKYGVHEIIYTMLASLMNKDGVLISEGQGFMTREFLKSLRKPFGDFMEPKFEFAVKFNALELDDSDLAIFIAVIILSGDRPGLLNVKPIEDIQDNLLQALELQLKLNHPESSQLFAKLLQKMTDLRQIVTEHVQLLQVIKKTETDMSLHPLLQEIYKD
Procedure: as §1, §2, §3

Mouse PPAR-α = target: T3, Mouse PPAR-α (Mus musculus, UniProt P23204); experiment: as above; type: cell-based; details: for Emax: CV-1, Relative Response % to maximum effects of the positive control drug, read-out: Max % Mouse PPAR-α; for EC50: CV-1 cells, GAL4 chimeric receptor, 24 hours
T3 construct: expressed in transfected cells; host or cells: CV-1 (CCL-70, ATCC)
T3 sequence (P23204 239-466 limits assumed): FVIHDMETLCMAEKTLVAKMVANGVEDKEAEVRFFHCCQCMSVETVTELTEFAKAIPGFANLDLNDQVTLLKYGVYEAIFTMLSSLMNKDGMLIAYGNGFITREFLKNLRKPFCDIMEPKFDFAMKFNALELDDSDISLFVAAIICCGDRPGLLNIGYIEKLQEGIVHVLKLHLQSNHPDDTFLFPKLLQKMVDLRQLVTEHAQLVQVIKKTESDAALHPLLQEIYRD
Procedure: as §1, §2, §3

Mouse PPAR-γ = target: T4, Mouse PPAR-γ (Mus musculus, UniProt P37238); experiment: as above; type: cell-based; details: for Emax: CV-1, Relative Response % to maximum effects of the positive control drug, read-out: Max % Mouse PPAR-γ; for EC50: CV-1 cells, GAL4 chimeric receptor, 24 hours
T4 construct: expressed in transfected cells; host or cells: CV-1 (CCL-70, ATCC)
T4 sequence (P37238 238-503 limits assumed): T2 sequence (P37231 238-503 limits assumed) with S93N, V98I, S146N, L226V, Q245H
Procedure: as §1, §2, §3

[1] = tested on: diabetic male mice (db/db mice); experiment: blood glucose-lowering effects in mice with hyperglycemic diabetes; type: in vivo; details: for % Inhibition vs. Control / Blood glucose D5: oral once a day for 5 days
Procedure: Effects of PPAR compounds on a blood glucose level were evaluated in 7-week-old diabetic male mice (db/db mice). Blood was collected from caudal veins of the diabetic animals to which the drug was administered once a day for 5 consecutive days, and the blood glucose level was then measured with a blood glucose test meter (ACCU CHEK Active®).

PPAR-γ and Trap220 = target: T5, PPAR-γ and Trap220 (Homo sapiens, UniProt P37231); experiment: binding capacity with Trap220 (mammalian two-hybrid assay) in CHO-K1 cells; type: cell-based; details: compared to the positive control drug rosiglitazone, FIG. 1
T5 construct: expressed in transfected cells; host or cells: CHO-K1 (CCL-61, ATCC)
T5 sequence (P37231 238-503 limits assumed): T2 sequence (P37231 238-503 limits assumed)
Procedure: Following induction of transient intracellular expression of PPAR-γ and Trap220, the binding capacity of the inventive compounds to a cofactor Trap220 after activation of PPAR-γ by the action of the inventive compounds was evaluated (mammalian two-hybrid assay).
For this purpose, a […] ovary cell line CHO-K1 (CCL-61, ATCC) was used as a test cell line. DNA constructs used in this assay were an expression vector pVP16 (Clontech) constructed to express a fusion of a human PPAR-γ2 ligand-binding domain with an activation domain of the […], and an expression vector pM (Clontech) constructed to express a fusion of human Trap220 with the GAL4 DNA-binding domain. Rosiglitazone maleate (Alcon Biosciences Private Limited), which is clinically used as a PPAR-γ agonist, was employed as a control drug.
The CHO-K1 cells were transiently transfected with two DNA constructs expressing the chimeric receptors and DNA constructs comprising 5 copies of the GAL4 DNA-binding domain and capable of inducing expression of firefly luciferase or Renilla luciferase using a Lipofectamine Plus reagent (Invitrogen, USA). Subsequent processes were carried out in the same manner as in the transactivation assay. The experimental results were expressed as an increase of the responsiveness vs. the negative control group with no addition of the drug.

Trap220 = details: cited from earlier work
[2] = 12-week clinical, P>0.05, cited from earlier work

SMILES | Emax (Human PPAR-α) [%] | EC50 (Human PPAR-α) [nM] | Emax (Human PPAR-γ) [%] | EC50 (Human PPAR-γ) [nM] | Emax (Mouse PPAR-α) [%] | Emax (Mouse PPAR-γ) [%] | EC50 (Mouse PPAR-γ) [nM] | % Inhibition vs. Control ([1]; 0.3 mg/kg) [%] | Blood glucose D5 ([1]; 0.3 mg/kg) [mg/dL] | % Inhibition vs. Control ([1]; 3 mg/kg) [%] | Blood glucose D5 ([1]; 3 mg/kg) [mg/dL] | Blood glucose D0 ([1]; oral, 0.3 mg/kg) [mg/dL] | Blood glucose D0 ([1]; oral, 3 mg/kg) [mg/dL] | % Inhibition vs. Control ([1]; 1 mg/kg) [%] | Blood glucose D5 ([1]; 1 mg/kg) [mg/dL] | Blood glucose D0 ([1]; oral, 1 mg/kg) [mg/dL] | also measured
CCO[C@@H](Cc1ccc(OCc2sc(-c3ccc(-c4nnn(COC)n4)cc3)cc2C)cc1)C(=O)O [Example 32, (S)-2-ethoxy-3-(4-((5-(4-(2-(methoxymethyl)-2H-tetrazol-5-yl)phenyl)-3-methylthiophen-2-yl)methoxy)phenyl)propionic acid] | 18 | 1010 | 32 | 111 | 9 | 31 | 322 | 21 | 416 ± 53 | 61 | 205 ± 42 | 500 ± 32 | 498 ± 30 | – | – | – | –
CCO[C@@H](Cc1ccc(OCc2sc(-c3ccc(-c4csc(C)n4)cc3)cc2C)cc1)C(=O)O [Example 21, (S)-2-ethoxy-3-(4-((3-methyl-5-(4-(2-methylthiazol-4-yl)phenyl)thiophen-2-yl)methoxy)phenyl)propionic acid] | 0 | – | 15 | 472 | 4 | 18 | 883 | 28 | 354 ± 67 | 36 | 319 ± 63 | 483 ± 38 | 483 ± 45 | 29 | 354 ± 58 | 482 ± 45 | % Inhibition vs. Control ([1]; 0.1 mg/kg): 16%; Blood glucose D5 ([1]; 0.1 mg/kg): 416 ± 45 mg/dL; Blood glucose D0 ([1]; oral, 0.1 mg/kg): 485 ± 44 mg/dL
CCO[C@@H](Cc1ccc(OCc2sc(-c3ccc(-c4cc(C)no4)cc3)cc2C)cc1)C(=O)[O-].[Na+] [Example 43, sodium (S)-2-ethoxy-3-(4-((3-methyl-5-(4-(3-methylisoxazol-5-yl)phenyl)thiophen-2-yl)methoxy)phenyl)propanoate] | – | – | – | – | – | – | – | – | – | – | – | – | – | – | – | – | responsiveness (binding capacity with Trap220) (PPAR-γ and Trap220): reduced responsiveness
O=S(=O)(Nc1cc(Cl)c(Oc2cnc3ccccc3c2)c(Cl)c1)c1ccc(Cl)cc1Cl [INT-131, reference compound] | – | – | – | – | – | – | – | – | – | 25 | 286 ± 34 | – | 382 ± 31 | 8 | 350 ± 31 | 381 ± 30 | % Inhibition vs. Control ([1]; 10 mg/kg): 38%; Blood glucose D5 ([1]; 10 mg/kg): 237 ± 19 mg/dL; Blood glucose D0 ([1]; oral, 10 mg/kg): 382 ± 28 mg/dL; ED30 ([1]; oral, blood glucose): 4 mg/kg; binding capacity for Trap220 (Trap220): attenuated binding capacity
CCO[C@@H](Cc1ccc(OCc2sc(-c3ccc(-c4cc(COC)on4)cc3)cc2C)cc1)C(=O)O [Example 36, (S)-2-ethoxy-3-(4-((5-(4-(5-(methoxymethyl)isoxazol-3-yl)phenyl)-3-methylthiophen-2-yl)methoxy)phenyl)propionic acid] | 25 | 2300 | 37 | 41 | 21 | 48 | 354 | – | – | – | – | – | – | 33 | 381 ± 73 | 577 ± 15 | EC50 (Mouse PPAR-α): 4300 nM; % Inhibition vs. Control ([1]; 10 mg/kg): 62%; Blood glucose D5 ([1]; 10 mg/kg): 278 ± 56 mg/dL; Blood glucose D0 ([1]; oral, 10 mg/kg): 577 ± 16 mg/dL
CCO[C@@H](Cc1ccc(OCc2sc(-c3ccc(-c4cc(C)no4)cc3)cc2C)cc1)C(=O)O [Example 41, (S)-2-ethoxy-3-(4-((3-methyl-5-(4-(3-methylisoxazol-5-yl)phenyl)thiophen-2-yl)methoxy)phenyl)propionic acid] | 23 | 3150 | 30 | 62 | 19 | 34 | 142 | 20 | 378 ± 44 | 46 | 257 ± 40 | 422 ± 36 | 423 ± 35 | 36 | 304 ± 13 | 422 ± 30 | EC50 (Mouse PPAR-α): 6160 nM; % Inhibition vs. Control ([1]; 0.1 mg/kg): 4%; Blood glucose D5 ([1]; 0.1 mg/kg): 455 ± 67 mg/dL; Blood glucose D0 ([1]; oral, 0.1 mg/kg): 422 ± 34 mg/dL
CC(=O)NCCOC(=O)[C@H](Oc1cccc(C(F)(F)F)c1)c1ccc(Cl)cc1 [metaglidasen] | – | – | – | – | – | – | – | – | – | – | – | – | – | – | – | – | edema incidence rate ([2]; 20% in control group): 7.2%; body weight ([2]; +1.3 kg in control group): +0.6 kg
